Assay results from patent US8071604B2, “Thio-substituted arylmethanesulfinyl derivatives” (Cephalon France, priority 2007, dated 2011).

Key:
[1] = system: rats; assay: Evaluation of wake promoting activity in rats (EEG/EMG sleep/wake scoring); assay type: in vivo, rat (adult male Wistar); details: i.p. route, 100 mg/kg dose; for Mean AUC0-3 h values, Test compound Mean: n = 8 rats per test compound, time awake in first 3 hrs following dosing; for wakefulness as compared to vehicle-treated control groups: rats, p<0.05 vs vehicle
Experimental: Methodology: Evaluation of Wake Promoting Activity in Rats
The methodology utilized for evaluating wake promoting activity of test compounds is based on that described by Edgar and Seidel, Journal of Pharmacology and Experimental Therapeutics, 283:757-769, 1997, and incorporated herein in its entirety by reference.
Animal Surgery. Adult, male Wistar rats (275-320 g from Charles River Laboratories, Wilmington, Mass.) were anesthetized (Nembutal, 45 mg/kg, ip.) and surgically prepared with implants for recording of chronic EEG (encephalographic) and EMG (electromyographic) recording. The EEG implants were made from commercially available components (Plastics One, Roanoke, Va.). EEG signals were recorded from stainless steel screw electrodes: 2 frontal (+3.0 mm AP from bregma, ±2.0 mm ML), and 2 occipital (−4.0 mm AP from bregma, ±2.0 mm ML). Two Teflon-coated stainless steel wires were positioned under the nuchal trapezoid muscles for EMG recording. All electrode leads were inserted into a connector pedestal and the pedestal affixed to the skull by application dental acrylic. Antibiotic was administered post surgically and antibiotic cream was applied to the wound edges to prevent infection. At least one week elapsed between surgery and recording.
Recording environment. Postsurgically, rats were housed in pairs in an isolated room. Food and water were available ad libitum, ambient temperature was 21° C., and humidity was 55%. At least 24 hrs prior to recording, they were placed in Nalgene containers (31×31×31 cm) with a wire-grid top, and entry to the room was prohibited during the day of recording except for dosing. The containers were placed on a rack with two shelves, 4 containers per shelf. Fluorescent overhead room lights were set to a 24 hr. light/dark cycle (on at 7 AM, off at 7 PM). Light levels inside the containers were 38 and 25 lux for the top and bottom shelves respectively. Background white-noise (68 db inside the containers) was present in the room to mask ambient sounds.
Data acquisition. EEG and EMG signals were led via cables to a commutator (Plastics One) and then to pre-amplifiers (model 1700, A-M Systems, Carlsborg, Wash.). EEG and EMG signals were amplified (10K and 1K respectively) and bandpass filtered between 0.3 and 500 Hz for EEG and between 10 and 500 Hz for EMG. […] On the day of dosing, data was recorded for 6 to 10 hours beginning at 11 AM.
Drug administration and study design. Compounds were evaluated on groups of from 4 to 8 rats carried out over one or two separate test sessions. […]
Sleep/wake scoring. Sleep and wake activity were determined manually using ICELUS software. […]

Row | melting point [°C] | Compound | Mean AUC0-3 h values, Test compound Mean [1] | wakefulness as compared to vehicle-treated control groups [1]
1 | 153 to 154 | NC(=O)C[S+]([O-])Cc1ccccc1COc1ccccc1 (centres unmarked) | – | –
2 | – | CC(=O)N1CCN(C(=O)C[S+]([O-])Cc2ccc(Oc3ccc(Cl)c(Cl)c3)cc2)CC1 (centres unmarked) [Example 22, 1-(4-Acetyl-piperazin-1-yl)-2-[4-(3,4-dichloro-phenoxy)-phenylmethanesulfinyl]-ethanone] | 162.7 % of waiking time × hr | significantly greated wakefulness
3 | – | NC(=O)C[S+]([O-])Cc1ccccc1NC(=O)c1ccc(Cl)cc1 (centres unmarked) [Example 113, N-(2-Carbamoylmethanesulfinylmethyl-phenyl)-4-chloro-benzamide] | 99.0 % of waiking time × hr | significantly greated wakefulness
